One assay addresses hKv1.5 (Homo sapiens, UniProt P22460). Briefly: Kv1.5 Autopatch Electrophysiology (whole cell patch-clamp). It counts as cell-based. The conditions noted are these: compound 1 μM, step to 0 mV for 1000 ms, total charge, room temperature (22-24° C.); for inhibition at 1 µM: read-out: hKv1.5 % inh. The procedure:
The external bathing solution contained (in mM): 150 NaCl, 10 KCl, […], 3 MgCl2, 1 CaCl2, 10 HEPES, pH 7.4. Patch pipettes were filled with an electrode solution of composition (in mM): 160 KCl, 0.5 MgCl2, 10 HEPES, 1 EGTA, pH 7.4 with KOH.
Compounds were dissolved in DMSO (100%) and made up in the external bather at a concentration of 1 μM. All experiments were conducted at room temperature (22-24° C.).
A cell suspension (10 ml), with a density of 100,000 cells/ml, was aliquoted into a 15 ml centrifuge tube and transferred to an incubator (37° C., 5% CO2) for approximately one hour before use. Following 60 min incubation, a tube was taken and centrifuged at 1000 rpm for 4 mins at room temperature. 9.5 ml supernatant was thence discarded, leaving a cell pellet at the bottom of the tube. The pellet was then resuspended using 100 μl of cold (4° C.), filtered (0.22 μm), 0.2% BSA/bather solution (0.02 g BSA/10 ml bather). The bottom of the tube was manually agitated gently until the solution became cloudy with cells. The 100 μl cell resuspension solution was then stored on the bench at 4° C. (using a Peltier-based temperature control device) until used.
A length of capillary glass (1B150E-4, WPI) was dipped into the cell suspension solution, such that ˜3 cm column of fluid was taken up by capillary action. A Ag/AgCl wire was dropped into the non-dipped end of the capillary also. The outside of the solution-filled end of the capillary was then dried and the capillary was loaded into the AutoPatch™
(§1) Borosilicate glass patch pipettes (from 1.5 mm OD, thin-walled filamented, GC150-TF capillary glass, Harvard) were pulled using a DMZ pipette puller (Zeitz Instruments), and were back-filled using the internal pipette solution, being careful that no bubbles remain at the tip or in the body of the pipette. Patch pipettes typically had resistances of 2.3-3.5 MΩ. Once filled, the pipette tip and a proportion of the shaft (˜15 mm) were dipped into Sigmacote (Sigma). The recording pipette was then loaded into the AutoPatch™. Automated patch-clamping was initiated by the operator, but thereafter AutoPatch.exe continued the experiment providing that pre-set conditions and criteria were satisfied.
Whole cell patch-clamp recordings were made using the AutoPatch™ rig, which incorporated an EPC9 amplifier (HEKA, Germany) under control of Pulse software (v8.54, HEKA, Germany), a motion controller with 2 translators (Newport, UK), valve controller (VF1) and a c-level suction device all at room temperature (22-24° C.). This equipment was completely under the control of AutoPatch.exe and operator intervention was only made when there was a requirement to refill the drug reservoirs or to prevent the loss of a cell due to a technical error. Cells with an Rseries greater than 18 MΩ were discounted from the experiment.
Qualification stages prior to perfusion and drug application ensured that the observed current met the criteria for the experiment. Only those cells with an IK>500 pA were used for experiments. Cells were continuously perfused with external solution at a flow rate of 1.8-2 ml/minute. […] Online analysis of the hKv1.5 current during the application of compounds was performed by the AutoPatch™ software. Voltage-step protocols and analysis of data was performed as described for conventional electrophysiology.
Electrophysiology voltage-step protocols and analysis of data was performed as follows. Data was sampled at 5 kHz, and filtered with a −3 dB bandwidth of 2.5 kHz. Cells were held at a voltage of −80 mV. Currents were evoked to a voltage step for 1000 ms in duration at 0 mV every 5 s. Currents were analysed using Pulsefit software (v8.54, HEKA, Germany), with the total charge measured during the whole of the voltage step. All other plots were produced using Igor Pro (WaveMetrics).

Another assay deals with T1, human Kv1.3 (Homo sapiens, UniProt P22001).
T1 construct: expressed in transfected cells; host or cells: stably transfected cells grown in medium for CHO cells
T1 sequence (P22001 whole entry): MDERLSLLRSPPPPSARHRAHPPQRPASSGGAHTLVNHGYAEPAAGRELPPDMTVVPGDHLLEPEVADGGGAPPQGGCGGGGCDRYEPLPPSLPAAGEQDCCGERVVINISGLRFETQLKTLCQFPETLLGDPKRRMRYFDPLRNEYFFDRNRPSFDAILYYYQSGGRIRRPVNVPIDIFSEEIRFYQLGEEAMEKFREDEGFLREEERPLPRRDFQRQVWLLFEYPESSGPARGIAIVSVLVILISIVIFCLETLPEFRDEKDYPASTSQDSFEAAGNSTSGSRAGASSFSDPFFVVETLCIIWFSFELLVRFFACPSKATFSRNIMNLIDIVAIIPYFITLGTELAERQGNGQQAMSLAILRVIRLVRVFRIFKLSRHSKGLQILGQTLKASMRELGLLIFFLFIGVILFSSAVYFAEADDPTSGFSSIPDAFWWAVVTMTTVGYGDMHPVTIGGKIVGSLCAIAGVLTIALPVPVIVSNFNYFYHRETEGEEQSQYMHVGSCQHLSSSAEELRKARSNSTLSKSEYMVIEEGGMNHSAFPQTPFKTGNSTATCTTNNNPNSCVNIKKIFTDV
Description: Kv1.3 Autopatch Electrophysiology (whole cell patch-clamp, stably transfected CHO cells). The format is cell-based. Particulars: compound 1 μM, step to +30 mV for 500 ms, inhibition of total charge relative to control, room temperature; for inhibition at 1 µM: CHO, read-out: hKv1.3 % inh. The procedure: Cells stably transfected with cDNA for human Kv1.3 (in pcDNA3.1) were grown in Ex-cell 302 serum-free medium for CHO cells, supplemented with 10 μl/ml [100×] glutamine, 500 μg/ml G418 ([…]), and 1% HT supplement (50×, hypoxanthine and thymidine). Compounds were tested on these cells using the AutoPatch technology in whole cell mode.
The external bathing solution contained (in mM): 150 NaCl, 10 KCl, 1 MgCl2, 3 CaCl2, 10 HEPES, pH 7.4 with NaOH. Patch pipettes were filled with an electrode solution of composition (in mM): 100 K-Gluconate, 20 KCl, 1 MgCl2, 1 CaCl2, 10 HEPES, 11 EGTA, 5 ATP-Na2, 2 Glutathione pH 7.2 with KOH.
Compounds were dissolved in DMSO (100%) and made up in the external bather at a concentration of 1 μM immediately prior to use. All experiments were conducted at room temperature.
A cell suspension (10 ml), with a density of 6×10^6 cells, was aliquoted into a 15 ml centrifuge tube and stored at 4° C. before use. Prior to use a tube was taken and centrifuged at 1000 rpm for 4 mins at room temperature. The supernatant was then discarded, leaving a cell pellet at the bottom of the tube. The pellet was then resuspended using 1 ml of cold (4° C.), filtered (0.22 μm), 0.05% BSA/bather solution (0.05 g BSA/100 ml bather). The bottom of the tube was manually agitated followed by gentle tituration. The cell suspension was then placed in the AutoPatch™ temperature controlled cell-hotel at 14° C. and regularly titurated.
as §1, with “A length of Teflon capillary tubing was dipped into the cell suspension solution, and a column of fluid was taken up by negative pressure. The column of fluid was in electrically connectivity with a Ag/AgCl reference electrode. Borosilicate” for “Borosilicate”, “remained” for “remain”, “2.5-3.5” for “2.3-3.5”, “pipettes were placed in a multiwell array and mounted on” for “pipette was then loaded into”, “AutoPatch™ machine.” for “AutoPatch™.”, “patch-clamping and drug-application” for “patch-clamping”
Whole cell patch-clamp recordings were made using the AutoPatch™ rig, which incorporated an EPC9 or EPC10 amplifier (HEKA, Germany) under control of Pulse software (v8.54 or v8.76, HEKA, Germany), a cell applicator, automated drug application system (DAS), valve controller (VF1) and a suction device all at room temperature. This equipment was completely under the control of AutoPatch.exe and operator intervention was only made when there was a requirement to refill the bather reservoirs or to prevent the loss of a cell due to a technical error.
Qualification stages prior to perfusion and drug application ensured that the observed current met the criteria for the experiment. Cells were continuously perfused with external solution at a flow rate of ˜2 ml/minute.
Electrophysiology voltage-step protocols and analysis of data was performed as follows. Data were sampled at 5 kHz, and filtered with a −3 dB bandwidth of 2.5 kHz. Cells were held at a voltage of −80 mV. Currents were evoked by a voltage step to +30 mV for 500 ms in duration applied every 15 s. Online analysis of the hKv1.3 current during the application of compounds was performed by the Pulse (v8.54 or v8.76, HEKA, Germany), Excel (Microsoft, USA) and AutoPatch™ software, with the total charge measured during the whole of voltage step Inhibition of charge movement in the presence of drug was calculated relative to control.

Sequence of hKv1.5 (P22460 whole entry): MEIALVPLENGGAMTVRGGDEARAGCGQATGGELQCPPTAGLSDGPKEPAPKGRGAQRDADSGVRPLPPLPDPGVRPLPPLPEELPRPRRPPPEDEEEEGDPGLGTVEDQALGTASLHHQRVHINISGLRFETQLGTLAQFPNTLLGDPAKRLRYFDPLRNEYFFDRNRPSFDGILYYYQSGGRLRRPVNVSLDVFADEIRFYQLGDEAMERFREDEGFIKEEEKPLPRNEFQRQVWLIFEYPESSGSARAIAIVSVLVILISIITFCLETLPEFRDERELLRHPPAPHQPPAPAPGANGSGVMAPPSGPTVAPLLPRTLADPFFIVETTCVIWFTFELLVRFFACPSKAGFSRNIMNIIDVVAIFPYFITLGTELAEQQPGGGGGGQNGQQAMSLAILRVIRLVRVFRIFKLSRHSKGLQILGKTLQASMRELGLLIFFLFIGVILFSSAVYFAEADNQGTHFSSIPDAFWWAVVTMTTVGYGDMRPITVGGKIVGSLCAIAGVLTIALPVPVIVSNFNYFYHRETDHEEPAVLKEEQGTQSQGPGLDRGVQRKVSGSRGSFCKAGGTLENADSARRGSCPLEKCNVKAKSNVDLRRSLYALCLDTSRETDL

Consider `O=S(=O)(c1ccccc1)N(Cc1ccccc1)c1cccc(N2CCNC(c3ccccc3)C2)c1` (stereo not shown) [Example 14, N-Benzyl-N-[3-(3-phenyl-piperazin-1-yl)-phenyl]-benzenesulfonamide], for which the results for the inhibition at 1 µM on hKv1.5 and on human Kv1.3 were 77% and 94%, respectively.

Turning to `COCC(=O)Nc1cccc(N(Cc2ccccc2)S(=O)(=O)c2ccccc2)c1` [Example 12, N-[3-(Benzenesulfonyl-benzyl-amino)-phenyl]-2-methoxy-acetamide], the inhibition at 1 µM at hKv1.5 is 58%; at human Kv1.3 it was 85%.

For `Cn1ccc(S(=O)(=O)N(Cc2ccc(Cl)cc2)c2cccc(OCC(=O)NC3CC3)c2)n1` [Example 51, 2-{3-[(4-Chloro-benzyl)-(1-methyl-1H-pyrazole-3-sulfonyl)-amino]-phenoxy}-N-cyclopropyl-acetamide], the inhibition at 1 µM at hKv1.5 is 72%; on human Kv1.3, 83%.

“1-Methyl-1H-pyrazole-3-sulfonic acid (4-chloro-benzyl)-(3-morpholin-4-yl-phenyl)-amide [Example 40]”: the hKv1.5 % inh. on hKv1.5 amounted to 95%. The hKv1.3 % inh. on human Kv1.3 is reported as 99%.

On hKv1.5, “1-Methyl-1H-pyrazole-3-sulfonic acid (4-chloro-benzyl)-[3-(2-oxo-pyrrolidin-1-yl)-phenyl]-amide [Example 38]” yielded a hKv1.5 % inh. of 71%. This compound also displayed a hKv1.3 % inh. on human Kv1.3 of 96%.

In the case of `O=S(=O)(c1ccccc1)N(Cc1ccccc1)c1cccc(N2CCOCC2)c1` [Example 2, N-Benzyl-N-(3-morpholin-4-yl-phenyl)-benzenesulfonamide], the results for the inhibition at 1 µM at hKv1.5 and on human Kv1.3 were 62% and 76%, respectively.

“1-Methyl-1H-pyrazole-3-sulfonic acid (4-chloro-benzyl)-[3-(2-oxo-imidazolidin-1-yl)-phenyl]-amide [Example 42]” yielded a hKv1.5 % inh. at hKv1.5 of 77%. In addition, the hKv1.3 % inh. on human Kv1.3 amounted to 99%.

“N-[3-(Benzenesulfonyl-benzyl-amino)-phenyl]-acetamide [Example 10]” yielded a hKv1.5 % inh. at hKv1.5 of 28%. For the same compound, the hKv1.3 % inh. at human Kv1.3 is 50%.

“Pyridine-3-sulfonic acid benzyl-[3-(2-oxo-imidazolidin-1-yl)-phenyl]-a(2-oxo-imidazolidin-1-yl)-phenyl]-amide [Example 47]” came in with a hKv1.5 % inh. at hKv1.5 of 51%. This compound returned a hKv1.3 % inh. at human Kv1.3 of 74%.

Take “1-Methyl-1H-pyrazole-3-sulfonic acid benzyl-(3-morpholin-4-yl-phenyl)-amide [Example 41]”: the hKv1.5 % inh. at hKv1.5 stood at 33%. On human Kv1.3, this compound had a hKv1.3 % inh. of 92%.

As for `Cc1nc(S(=O)(=O)N(Cc2ccccc2)c2cccc(N3CCOCC3)c2)cn1C` [Example 19, 1,2-Dimethyl-1H-imidazole-4-sulfonic acid benzyl-(3-morpholin-4-yl-phenyl)-amide], the values for the inhibition at 1 µM on hKv1.5 and at human Kv1.3 were 42% and 75%, respectively.
